We go through eight compounds from ChEMBL document CHEMBL4673400, “Potential of Cyclin-Dependent Kinase Inhibitors as Cancer Therapy” (ACS Med Chem Lett, 2021).

In assay [1] the target is Cyclin-dependent kinase 2/cyclin E1 (Homo sapiens, UniProt P24941).
Description: Inhibition of recombinant full length wild-type phosphorylated CDK2/Cyclin E1 (unknown origin) expressed in baculovirus expression system assessed as reduction in production of ADP using 5-FAM-QSPKKG-CONH2 peptide as substrate preincubated with enzyme for 15 mins followed by further incubation with ATP for 45 mins by fluorescence-based microfluidic mobility shift assay
The target of assay [2] is CDK6/cyclin D1 (Homo sapiens, UniProt Q00534).
Sequence of CDK6/cyclin D1 (P24385 whole entry): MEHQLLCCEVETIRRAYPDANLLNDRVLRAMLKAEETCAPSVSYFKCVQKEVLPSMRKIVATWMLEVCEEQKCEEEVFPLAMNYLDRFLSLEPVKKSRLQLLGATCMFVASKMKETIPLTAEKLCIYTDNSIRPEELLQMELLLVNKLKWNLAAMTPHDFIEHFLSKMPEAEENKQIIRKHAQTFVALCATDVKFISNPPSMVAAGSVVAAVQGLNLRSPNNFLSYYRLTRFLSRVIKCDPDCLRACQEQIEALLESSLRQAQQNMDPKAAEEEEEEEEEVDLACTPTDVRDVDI
Sequence of CDK6/cyclin D1 (Q00534 whole entry): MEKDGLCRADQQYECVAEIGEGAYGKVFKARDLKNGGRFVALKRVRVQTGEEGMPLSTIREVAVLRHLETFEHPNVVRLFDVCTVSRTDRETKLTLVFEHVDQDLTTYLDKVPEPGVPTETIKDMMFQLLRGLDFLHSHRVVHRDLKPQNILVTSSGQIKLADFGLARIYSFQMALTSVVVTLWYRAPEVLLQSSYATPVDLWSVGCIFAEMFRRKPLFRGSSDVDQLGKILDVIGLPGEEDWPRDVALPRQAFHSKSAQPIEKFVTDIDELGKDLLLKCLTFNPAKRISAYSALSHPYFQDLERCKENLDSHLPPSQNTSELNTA

In turn, `CNS(=O)(=O)N1CCC(Nc2ncc3cc(Cl)c(=O)n([C@@H]4CCC[C@@]4(C)O)c3n2)CC1` had a Ki in assay [1] of 0.2 nM.
On the same count and under the same terms, the result for `CS(=O)(=O)N1CCC(Nc2ncc3cc(CC(N)=O)c(=O)n([C@@H]4CCC[C@@H](O)C4)c3n2)CC1` reads 1.73 nM.
On to `C[C@@]1(O)CCC[C@H]1n1c(=O)ccc2cnc(NC3CCN(S(=O)(=O)CC4CC4)CC3)nc21`, for which the Ki in assay [2] stood at 0.88 nM; in assay [1] it was 0.25 nM.
Consider `C[C@@]1(O)CCC[C@H]1n1c(=O)c(CC#N)cc2cnc(NC3CCN(S(C)(=O)=O)CC3)nc21`, for which affinity in assay [1] was put at a Ki of 0.16 nM.
Same read-out and setting: the result for `CNS(=O)(=O)N1CCC(Nc2ncc3ccc(=O)n([C@@H]4CCC[C@@]4(C)O)c3n2)CC1` reads 0.28 nM; that for `C[C@]1(O)CCC[C@@H]1n1c(=O)ccc2cnc(NC3CCN(S(=O)(=O)c4nccs4)CC3)nc21`, 7.32 nM; that for `C[C@@]1(O)CCC[C@H]1n1c(=O)ccc2cnc(NC3CCN(S(N)(=O)=O)CC3)nc21`, 0.1 nM.
On the same count and under the same terms, the result for `C[C@@H]1[C@H](O)CC[C@H]1n1c(=O)ccc2cnc(NC3CCN(S(C)(=O)=O)CC3)nc21` reads 0.12 nM.
